Each compound was assayed on luciferase-expressing L. major parasites developing intracellularly inside RAW 264.7 macrophages (assay: Leishmania major intracellular amastigote assay in RAW 264.7 macrophages (luciferase)). Conditions: RAW264.7, 96 hours, read-out: IC50: I Org. intracellular amastigote Growth L. major, 4 d.
Format: cell-based
Excerpt: Example 107. Assay for Leishmania major Intracellular Amastigote Assay in RAW 264.7 Macrophages
The intracellular amastigote assay is a microtiter plate drug sensitivity assay that uses the activity of luciferase as a measure of proliferation of luciferase-expressing L. major parasites developing intracellularly inside RAW 264.7 macrophages in the presence of antileishmanial drugs or experimental compounds. (Buckner, F. S., and A. J. Wilson. Am J Prop Med Hyg, 2005, 72(5): 600-605.) As the activity of luciferase and its associated luminescence after addition of the substrate, luciferin, is relative to parasite growth, a test compound that inhibits the growth of the parasite will result in a lower luminescence. The luciferase-expressing L. major parasite used in this assay is genetically modified by adding the luciferase coding region to the pLEXSY-hyg2 vector (Jena Biosciences). The luciferase expression construct was created by digesting the luciferase coding region (1.66 kbp) of pGL3-Basic (Promega) by using two restriction enzymes, NcoI/EagI, followed by electrophoretic separation of the luciferase coding region on a 1% agarose gel. The luciferase coding region was then ligated into pLEXSY-hyg2 vector (Jena Biosciences) which had previously been digested with NcoI/NotI. The vector was linearized with SwaI and subsequently gel purified prior to transfection into L. major parasites. Transfections were carried out by electroporation at 480V, 13Ω, and 500 μF (0.4 mL of 1×10^8 parasites/mL, and 0.1 mL of 10 μg DNA). Selection for transfectants was then carried out using hygromycin B (100 μg/mL). RAW 264.7 macrophages were cultured in DMEM media (ATCC Cat #30-2002) supplemented with heat-inactivated 10% FBS (Invitrogen Cat #10438-034). To begin the assay, macrophages were harvested from culture by removing all spent media, adding in 10 mL fresh media, scraping cells, and counted using Trypan Blue. The cells were resuspended in DMEM/10% HIFBS media at 2.0×10^5 cells/mL, and then dispensed in a volume of 50 μL to yield a final concentration of 10,000 macrophages/well in 384 well tissue-culture treated sterile white plates (Nunc Cat #12-565-343) using a Tecan EVO Freedom robotics system. The plates were then incubated at 37° C. overnight in 5% CO2 atmosphere for 24 hours. After overnight incubation, the media was removed from each well using the Tecan EVO Freedom robot, and L. major promastigotes were added to each well and allowed to invade the RAW macrophages. Promastigotes were cultured in Schneider's medium (Invitrogen Cat #11720-067) supplemented with 20% heat inactivated FBS. Metacyclic stage promastigotes provide the best invasion for this assay, and cultures should be grown to increase the percentage of metacyclic promastigotes for best results. Promastigotes were harvested from culture, counted, suspended at 2×10^6 promastigotes/mL in DMEM/HIFBS media, and 100,000 promastigotes were dispensed per well in a volume of 50 μL. After overnight incubation, the media was removed from each well using the Tecan Freedom EVO robot, and each well was subsequently washed three times with 40 μF of fresh DMEM/HIFBS medium to remove all extracellular promastigotes. After the third wash, 69.2 μF of DMEM/HIFBS medium was added to each well using the Tecan EVO Freedom robot. Drug plates were prepared with the Tecan EVO Freedom using sterile 96 well plates containing twelve duplicate two-fold serial dilutions of each test compound suspended in DMSO. 7.8 μF of diluted test compound was added to the 69.2 μF of media present in each well providing a 10 fold final dilution of compound. The final concentration range tested was 0.5 to 10,000 ng/ml for all assays. The plates were next incubated at 37° C. and 5% CO2 for 96 hours. After 96 hours of incubation, 7.5 μF of a luciferin solution (Caliper Fife Science) diluted to 150 μg/mF was added to each well, and the plates were incubated for 30 minutes at 37° C., in the dark. […]

SMILES | IC50
Cc1c(C(=O)Nc2ccc3c(c2)B(O)OC3)nnn1CC(F)(F)F [Example 39, N-(1-hydroxy-1,3-dihydrobenzo[c][1,2]oxaborol-6-yl)-5-methyl-1-(2,2,2-trifluoroethyl)-1H-1,2,3-triazole-4-carboxamide] | ≤ 1000 nM
COCCn1nnc(C(=O)Nc2ccc3c(c2)B(O)OC3)c1C [Example 40, N-(1-hydroxy-1,3-dihydrobenzo[c][1,2]oxaborol-6-yl)-1-(2-methoxyethyl)-5-methyl-1H-1,2,3-triazole-4-carboxamide] | ≤ 1000 nM
O=C(Nc1ccc2c(c1)B(O)OC2)c1nnn(C2CCCC2)c1C(F)(F)F [Example 30, 1-cyclopentyl-N-(1-hydroxy-1,3-dihydrobenzo[c][1,2]oxaborol-6-yl)-5-(trifluoromethyl)-1H-1,2,3-triazole-4-carboxamide] | ≤ 1000 nM
Cc1c(C(=O)Nc2ccc3c(c2)B(O)OC3)nnn1CC1CC1 [Example 43, 1-(cyclopropylmethyl)-N-(1-hydroxy-1,3-dihydrobenzo[c][1,2]oxaborol-6-yl)-5-methyl-1H-1,2,3-triazole-4-carboxamide] | 10000 to 50000 nM
O=C(Nc1ccc2c(c1)B(O)OC2)c1nnn(C2CCC2)c1C(F)(F)F [Example 45, 1-cyclobutyl-N-(1-hydroxy-1,3-dihydrobenzo[c][1,2]oxaborol-6-yl)-5-(trifluoromethyl)-1H-1,2,3-triazole-4-carboxamide] | 10000 to 50000 nM
CCn1nnc(C(=O)Nc2ccc3c(c2)B(O)OC3)c1C(F)(F)F [Example 28, 1-ethyl-N-(1-hydroxy-1,3-dihydrobenzo[c][1,2]oxaborol-6-yl)-5-(trifluoromethyl)-1H-1,2,3-triazole-4-carboxamide] | ≤ 1000 nM
COCCn1nnc(C(=O)Nc2ccc3c(c2)B(O)OC3)c1C(F)(F)F [Example 33, N-(1-hydroxy-1,3-dihydrobenzo[c][1,2]oxaborol-6-yl)-1-(2-methoxyethyl)-5-(trifluoromethyl)-1H-1,2,3-triazole-4-carboxamide] | ≤ 1000 nM
Cc1c(C(=O)Nc2ccc3c(c2)B(O)OC3)nnn1C1CCCC1 [Example 41, 1-cyclopentyl-N-(1-hydroxy-1,3-dihydrobenzo[c][1,2]oxaborol-6-yl)-5-methyl-1H-1,2,3-triazole-4-carboxamide] | ≤ 1000 nM
O=C(Nc1ccc2c(c1)B(O)OC2)c1nnn(CC2CCCC2)c1C(F)(F)F [Example 35, 1-(cyclopentylmethyl)-N-(1-hydroxy-1,3-dihydrobenzo[c][1,2]oxaborol-6-yl)-5-(trifluoromethyl)-1H-1,2,3-triazole-4-carboxamide] | ≤ 1000 nM
Cc1c(C(=O)Nc2ccc3c(c2)B(O)OC3)nnn1CC1CCCC1 [Example 44, 1-(cyclopentylmethyl)-N-(1-hydroxy-1,3-dihydrobenzo[c][1,2]oxaborol-6-yl)-5-methyl-1H-1,2,3-triazole-4-carboxamide] | 10000 to 50000 nM
CCCn1nnc(C(=O)Nc2ccc3c(c2)B(O)OC3)c1C(F)(F)F [Example 31, N-(1-hydroxy-1,3-dihydrobenzo[c][1,2]oxaborol-6-yl)-1-propyl-5-(trifluoromethyl)-1H-1,2,3-triazole-4-carboxamide] | ≤ 1000 nM
Cc1c(C(=O)Nc2ccc3c(c2)B(O)OC3)nnn1C(C)C [Example 37, N-(1-hydroxy-1,3-dihydrobenzo[c][1,2]oxaborol-6-yl)-1-isopropyl-5-methyl-1H-1,2,3-triazole-4-carboxamide] | ≤ 1000 nM
O=C(Nc1ccc2c(c1)B(O)OC2)c1nnn(CC2CC2)c1C(F)(F)F [Example 34, 1-(cyclopropylmethyl)-N-(1-hydroxy-1,3-dihydrobenzo[c][1,2]oxaborol-6-yl)-5-(trifluoromethyl)-1H-1,2,3-triazole-4-carboxamide] | ≤ 1000 nM
CCCn1nnc(C(=O)Nc2ccc3c(c2)B(O)OC3)c1C [Example 36, N-(1-hydroxy-1,3-dihydrobenzo[c][1,2]oxaborol-6-yl)-5-methyl-1-propyl-1H-1,2,3-triazole-4-carboxamide] | ≤ 1000 nM
O=C(Nc1ccc2c(c1)B(O)OC2)c1nnn(C2CC2)c1C(F)(F)F [Example 29, 1-cyclopropyl-N-(1-hydroxy-1,3-dihydrobenzo[c][1,2]oxaborol-6-yl)-5-(trifluoromethyl)-1H-1,2,3-triazole-4-carboxamide] | ≤ 1000 nM
Cc1c(C(=O)Nc2ccc3c(c2)B(O)OC3)nnn1C1CC1 [Example 38, 1-cyclopropyl-N-(1-hydroxy-1,3-dihydrobenzo[c][1,2]oxaborol-6-yl)-5-methyl-1H-1,2,3-triazole-4-carboxamide] | ≤ 1000 nM
CC(C)n1nnc(C(=O)Nc2ccc3c(c2)B(O)OC3)c1C(F)(F)F [Example 32, N-(1-hydroxy-1,3-dihydrobenzo[c][1,2]oxaborol-6-yl)-1-isopropyl-5-(trifluoromethyl)-1H-1,2,3-triazole-4-carboxamide] | ≤ 1000 nM

Each compound was assayed on TdTomato-modified T. cruzi (CL strain) in Vero cells (assay: In vitro IC50 measurement of T. cruzi amastigote killing using TdTomato-modified T. cruzi (CL strain)). Conditions: Trypanosoma cruzi, 72 h, fluorescence, read-out: IC50: I Org. amastigote Growth T. cruzi CL TdTomato, 3 d.
Format: cell-based
Experimental: Example 112. In Vitro IC50 Measurement of T. cruzi Amastigote Killing Using TdTomato-Modified T. cruzi (CL Strain)
The T. cruzi parasites used in this assay were genetically modified to express Td Tomato fluorescent protein. Vero cells (African green monkey kidney epithelial cells) were harvested from continuous cultures using trypsin and added to the inner 60 wells of 96-well Greiner Bio One plates (plate catalog #655090) at 200 ul/well of […]. Cells were allowed to adhere for 1 h before infection with T. cruzi. T. cruzi for infection were harvested from previously-infected Vero cells, washed, pelleted and resuspended at 5×10^6/mL. 50 uL of parasites were added to each well containing Vero cells. Compounds were prepared from 5 mM stock concentrations in DMSO to final concentrations in wells ranging from 5 uM to 5 nM. Wells were provided for negative controls, lacking compounds. Plates were placed into a 37° C. incubator for 20 min, then a “Day 0” reading was taken on a Synergy H4 plate reader to record initial fluorescence levels, at 544 (excitation) and 612 nm (emission). 96-well plates were placed in Tupperware containers with wet paper towels and incubated at 37° C. incubator for 72 h. After 72 h plates were reread (Day 3 reading) and data analyzed using Excel and/or Graphpad software. Day 0 fluorescence was subtracted from Day 3 to remove input parasite fluorescence. Growth curves are generated and 50% and 90% inhibitory concentrations are determined by nonlinear regression analysis.

SMILES | IC50
COCCc1c(C(=O)Nc2ccc3c(c2)B(O)OC3)nnn1-c1ccccn1 [Example 52, N-(1-hydroxy-1,3-dihydrobenzo[c][1,2]oxaborol-6-yl)-5-(2-methoxyethyl)-1-(pyridin-2-yl)-1H-1,2,3-triazole-4-carboxamide] | 1100 to 10000 nM
CCc1c(C(=O)Nc2ccc3c(c2)B(O)OC3)nnn1-c1ccccn1 [Example 49, 5-ethyl-N-(1-hydroxy-1,3-dihydrobenzo[c][1,2]oxaborol-6-yl)-1-(pyridin-2-yl)-1H-1,2,3-triazole-4-carboxamide] | < 600 nM

Each compound was assayed on IL3000 T. congolense (drug sensitive) strain (assay: In vitro Alamar Blue 72 h drug sensitivity assay for T. congolense). Conditions: Trypanosoma congolense; bloodstream form, 69 h + 3 h resazurin, 34° C.; classes A-C; read-out: IC50: I Org. Growth T. congolense IL-3000, 3 d.
Format: cell-based
Experimental: Example 106. In Vitro Alamar Blue 72 h Drug Sensitivity Assay for T. congolense
Compounds were tested in vitro for chemotherapeutic potency against the IL3000 T. congolense (drug sensitive) strain, using the Alamar Blue assay with several modifications. Test compounds were prepared as 10 mg/mL DMSO stocks for each assay run. Compounds were assayed in at least three separate, independent test runs and an 11-point dilution curve was used to determine the IC50 values. Bloodstream form trypanosomes were supported in HMI media containing 20% bovine serum and were incubated with test compounds for 69 h at 34° C. in a humidified atmosphere containing 5% CO2. Thereafter, 10 μL of Resazurin dye (12.5 mg in 100 mL of phosphate buffered saline, Sigma-Aldrich, Buchs, Switzerland) were added for an additional 3 h. Plates were then read using a fluorescent plate reader (Spectramax, Gemini XS, Bucher Biotec, Basel, Switzerland) using an excitation wavelength of 536 nm and an emission wavelength of 588 nm. Data points were averaged to generate sigmoidal dose-response curves and IC50 values were determined using Softmax Pro 5.2 software.

SMILES | IC50
COCCc1c(C(=O)Nc2ccc3c(c2)B(O)OC3)nnn1-c1ccccn1 [Example 52, N-(1-hydroxy-1,3-dihydrobenzo[c][1,2]oxaborol-6-yl)-5-(2-methoxyethyl)-1-(pyridin-2-yl)-1H-1,2,3-triazole-4-carboxamide] | 100 to 300 nM
CCc1c(C(=O)Nc2ccc3c(c2)B(O)OC3)nnn1-c1ccccn1 [Example 49, 5-ethyl-N-(1-hydroxy-1,3-dihydrobenzo[c][1,2]oxaborol-6-yl)-1-(pyridin-2-yl)-1H-1,2,3-triazole-4-carboxamide] | < 100 nM
